According to PubChem BioAssay (NCI):
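In this assay, cells in 96-well plates receive the compound at five concentrations for 48 hours. Endpoints are linearly interpolated between the surrounding concentrations. TGI: total growth inhibition.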 Where a SMILES comes first, the peptide text is derived from it. [ ]: non-standard residue; d: D form.

Legend:
Experiment in all cases: growth of human tumour cells (NCI), 48 h
COLO 205 colon = system: COLO 205 colon
SF-295 CNS = system: SF-295 CNS
TK-10 renal = system: TK-10 renal
MALME-3M melanoma = system: MALME-3M melanoma
HCT-15 colon = system: HCT-15 colon
NCI-H23 lung = system: NCI-H23 lung
SK-MEL-28 melanoma = system: SK-MEL-28 melanoma
RXF 393 renal = system: RXF 393 renal
OVCAR-5 ovarian = system: OVCAR-5 ovarian
ACHN renal = system: ACHN renal

| SMILES | TGI (COLO 205 colon) [µM] | TGI (SF-295 CNS) [µM] | TGI (TK-10 renal) [µM] | TGI (MALME-3M melanoma) [µM] | TGI (HCT-15 colon) [µM] | TGI (NCI-H23 lung) [µM] | TGI (SK-MEL-28 melanoma) [µM] | TGI (RXF 393 renal) [µM] | TGI (OVCAR-5 ovarian) [µM] | TGI (ACHN renal) [µM] |
| --- | --- | --- | --- | --- | --- | --- | --- | --- | --- | --- |
| N#Cc1sc2c(c1OC(=O)c1ccco1)c(=O)n(-c1ccccc1)c(=S)n2-c1ccccc1 | 61.5 | > 100 | > 100 | 58.2 | 52.4 | > 100 | > 100 | 69.6 |  |  |
| COc1ccc(C(C2=C(O)CC(C)OC2=O)C2=C(O)CC(C)OC2=O)cc1 (configuration not stated) | > 100 | > 100 |  | > 100 | > 100 | > 100 | > 100 |  | > 100 | > 100 |
| C[Si](C)(C)OC1(C#N)c2ccccc2CCCC12CCCC2 (configuration not stated) | > 100 | > 100 | > 100 | > 100 | > 100 | > 100 | > 100 | 88.1 | > 100 | > 100 |
| CC(C)C[C@H](NC(=O)[C@H](CC(C)C)NC(=O)[C@@H](Cc1c[nH]c2ccccc12)NC(=O)[C@H](Cc1ccccc1)NC(=O)[C@@H](Cc1c[nH]c2ccccc12)NC(=O)[C@H](CCC(N)=O)NC(=O)[C@@H](CCC(N)=O)NC(=O)[C@@H]1CCCN1C(=O)[C@@H](CCCCN)NC(=O)[C@H]1CCCN1C(=O)[C@H](N)CCCN=C(N)N)C(N)=O (H-[dR][dP][dK]P[dQ]Q[dW]F[dW]LL-NH2) | > 100 | > 100 |  | > 31.6 | > 100 | > 100 | > 100 | > 100 | > 100 |  |
| O=C(O)C(Cc1ccccc1)Cc1ccccc1 | > 100 | > 100 | > 100 | > 100 | > 100 | > 100 | > 100 | > 100 | > 100 | > 100 |
| N#Cc1c(/C=C/c2ccccc2)c2c([nH]c1=S)CCCCC2 | > 100 | > 100 | > 100 | > 100 | > 100 | > 100 | > 100 | > 100 | > 100 | > 100 |
| C=C(C)C1(Sc2ccc(OC)cc2)CC1 | 60.1 | 71 | > 100 | 66.9 | > 100 | > 100 | > 100 | 36.3 | > 100 | > 100 |
| COc1cc2c3c(n(C)c(=O)c2cc1OC)-c1cc2c(cc1/C3=C\CCCCl)OCO2 | > 100 | 99.2 | 37.3 | > 100 | > 100 | 40.9 | > 100 | 26.8 | > 100 | > 100 |
| O=C(CC12C3C4C1C1C2C3C41CC(=O)NO)NO (configuration not stated) | > 100 | > 100 | > 100 | > 100 | > 100 | > 100 | > 100 |  | > 100 | > 100 |
| O=C(CSc1nc2ccc(I)cc2c(=O)n1Cc1ccccc1)Nc1ccccc1 | > 100 | 66.7 |  | 43.8 | > 100 | > 100 | > 100 | 34.1 | > 100 | > 100 |
| CC1CN(c2cc3c(cc2F)c(=O)c(C(=O)O)cn3-c2ccc(N3CCN(C)CC3)cn2)CC(C)N1 (configuration not stated) | > 100 | > 100 | > 100 | > 100 | > 100 | > 100 | > 100 | > 100 | > 100 |  |
| O=C1CCCC1CC(CN1CCOCC1)Sc1nnnn1-c1ccccc1 (configuration not stated) | 33.1 | > 100 |  | > 100 |  | > 100 | > 100 | > 100 | > 100 | > 100 |
| NS(=O)(=O)c1nnc(NS(=O)(=O)c2cccc3cccnc23)s1 | > 100 | > 100 | > 100 |  | > 100 | > 100 | > 100 | > 100 | > 100 | > 100 |
| O=S(=O)(O)c1cc(S(=O)(=O)O)c2cc(N=Nc3ccc(N=Nc4ccc(/C=C/c5ccc(N=[N+]([O-])c6ccc(/C=C/c7ccc(N=Nc8ccc(N=Nc9ccc%10cc(S(=O)(=O)O)cc(S(=O)(=O)O)c%10c9)cc8)cc7S(=O)(=O)O)c(S(=O)(=O)O)c6)cc5S(=O)(=O)O)c(S(=O)(=O)O)c4)cc3)ccc2c1 | > 100 | > 74.3 |  | > 100 | > 100 | > 100 | > 100 | > 78.7 | > 100 |  |
| CC(=O)NC1C(OCc2ccccc2)OC(CO)C(O)C1OC(C)C(=O)NC(C(=O)NC(CCC(=O)NCCCNc1ccc([N+](=O)[O-])c2[nH]c3ccccc3c(=O)c12)C(N)=O)C(C)C (configuration not stated) | > 100 | > 100 | > 100 |  | > 100 | > 100 | > 100 |  | > 100 | > 100 |
| O=C1C(c2ccccc2)=C(c2ccccc2)C1(Cl)Cl | 6.4 | 28.7 | 2.81 | 7.56 | 4.51 | 7.72 | 10.9 |  | 20.8 | 7.09 |
| O=C1Sc2ccccc2C(=O)N2CCSC12 (configuration not stated) | > 100 | > 100 | > 100 | > 100 | > 100 | > 100 | > 100 | > 100 | > 100 |  |
| NC1(c2cc3ccccc3s2)CCCCCC1 | 26.5 | 32.5 | 28.8 |  | 36.9 | 34 | 30.9 | 25.4 | 28.7 | 33.4 |
| O=C1CCC2(O)c3ccccc3C2Cc2ccccc21 (configuration not stated) | > 100 | > 100 | > 100 | > 100 |  | > 100 | > 100 | > 100 |  | > 100 |
| CCOC(=O)c1ccc2nc3n(c2c1)C(c1c(F)cccc1F)SC3 (configuration not stated) | > 100 | > 100 | > 100 |  | > 100 | > 100 | > 100 | > 100 | > 100 | > 100 |
| CCOP(=O)(OCC)C(Nc1ccc(Cl)cc1)c1ccc(F)cc1 (configuration not stated) | 87.1 | 44.8 | > 100 | 42.3 | > 100 | 53.9 | 41.7 | 67.3 |  | 97.2 |
